Source: paper PMC10709440, “High-throughput ligand profile characterization in novel cell lines expressing seven heterologous insect olfactory receptors for the detection of volatile plant biomarkers” (Scientific Reports, 2023)
Read-outs that look alike come from different tables or passages of the source.

What was measured:
Drosophila OR13a = molecular target: T1, Drosophila OR13a (Drosophila melanogaster, UniProt Q9VXL0); experiment: Calcium ion fluorescence (GCaMP6) assay, OR13a stable HEK293 cell line; type: cell-based; settings: for DF norm AVERAGE OR13a: threshold 0.05, below shown as 0
T1 construct: expressed in transfected cells
T1 sequence (Q9VXL0 1-418): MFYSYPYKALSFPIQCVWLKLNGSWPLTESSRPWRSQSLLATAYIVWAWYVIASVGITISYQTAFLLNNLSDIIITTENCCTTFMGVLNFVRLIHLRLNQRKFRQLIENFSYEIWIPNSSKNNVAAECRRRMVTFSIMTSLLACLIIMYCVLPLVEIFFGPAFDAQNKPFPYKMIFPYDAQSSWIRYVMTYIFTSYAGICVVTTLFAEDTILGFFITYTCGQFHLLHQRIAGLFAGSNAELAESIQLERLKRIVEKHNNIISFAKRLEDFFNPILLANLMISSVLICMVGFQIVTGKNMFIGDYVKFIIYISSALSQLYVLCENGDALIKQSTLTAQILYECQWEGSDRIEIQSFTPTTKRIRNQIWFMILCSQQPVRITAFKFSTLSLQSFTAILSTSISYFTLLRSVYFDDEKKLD
T1 sequence (Q9VNB5 1-486 partner): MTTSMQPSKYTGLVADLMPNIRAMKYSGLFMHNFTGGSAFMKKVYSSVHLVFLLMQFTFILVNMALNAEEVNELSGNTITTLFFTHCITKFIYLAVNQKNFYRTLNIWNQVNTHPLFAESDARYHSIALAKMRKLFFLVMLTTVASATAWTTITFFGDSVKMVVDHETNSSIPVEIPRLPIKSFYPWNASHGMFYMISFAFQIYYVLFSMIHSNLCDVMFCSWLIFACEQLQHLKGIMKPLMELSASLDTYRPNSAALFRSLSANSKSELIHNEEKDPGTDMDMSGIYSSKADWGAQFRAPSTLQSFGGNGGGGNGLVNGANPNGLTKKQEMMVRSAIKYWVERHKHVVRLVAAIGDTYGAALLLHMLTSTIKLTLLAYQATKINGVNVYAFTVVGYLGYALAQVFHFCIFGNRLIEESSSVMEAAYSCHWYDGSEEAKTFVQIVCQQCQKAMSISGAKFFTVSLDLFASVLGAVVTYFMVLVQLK
Summary of the method: (§1)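 HEK293 lines stably expressing each Drosophila OR with GCaMP6, doxycycline-induced (1 μg/mL) 48 or 72 h. Fluorescence recorded 5 s baseline then 30 s after VOC injection at pH 7.3; ΔF=(FMAX−F0)/F0, normalized to 50 µM VUAA1 response per line, triplicate wells averaged; concentration series 0.01–100 μM.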

Drosophila OR10a = molecular target: T2, Drosophila OR10a (Drosophila melanogaster, UniProt Q9VYZ1); experiment: Calcium ion fluorescence (GCaMP6) assay, OR10a stable HEK293 cell line; type: cell-based; settings: for DF norm AVERAGE OR10a: threshold 0.05, below shown as 0
T2 construct: expressed in transfected cells
T2 sequence (Q9VYZ1 1-406): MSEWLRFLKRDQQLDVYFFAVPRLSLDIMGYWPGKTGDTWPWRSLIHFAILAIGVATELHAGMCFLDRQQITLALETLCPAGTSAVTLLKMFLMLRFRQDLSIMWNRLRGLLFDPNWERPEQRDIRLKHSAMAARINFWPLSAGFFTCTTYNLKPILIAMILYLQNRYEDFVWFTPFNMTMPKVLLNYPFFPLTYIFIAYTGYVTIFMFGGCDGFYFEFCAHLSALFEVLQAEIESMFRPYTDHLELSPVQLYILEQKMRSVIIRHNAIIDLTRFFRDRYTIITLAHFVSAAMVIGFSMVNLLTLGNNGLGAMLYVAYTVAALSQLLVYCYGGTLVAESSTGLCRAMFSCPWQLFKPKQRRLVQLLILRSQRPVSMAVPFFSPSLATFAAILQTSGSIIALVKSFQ
T2 sequence (Q9VNB5 1-486 partner): T1 sequence (Q9VNB5 1-486 partner)
Summary of the method: as §1

[1] = HEK293, read-out: OR13a Average response (VUAA1-normalized), 1 μM VOC, 50 μM VUAA1 = 1, responses not exceeding 0.05 considered 0
[2] = HEK293, read-out: OR13a Average response (VUAA1-normalized), 10 μM VOC, 50 μM VUAA1 = 1, responses not exceeding 0.05 considered 0
[3] = HEK293, read-out: OR13a Average response (VUAA1-normalized), 100 μM VOC, 50 μM VUAA1 = 1, responses not exceeding 0.05 considered 0
[4] = HEK293, read-out: OR13a response (VUAA1-normalized response), VOC concentration 1 μM
[5] = HEK293, read-out: OR13a response (VUAA1-normalized response), VOC concentration 10 μM
[6] = HEK293, read-out: OR13a response (VUAA1-normalized response), VOC concentration 100 μM
[7] = ligand concentration 1 (unit not given)
[8] = ligand concentration 10 (unit not given)
[9] = ligand concentration 100 (unit not given)
[10] = HEK293, 1 μM VOC, 50 μM VUAA1 = 1, responses not exceeding 0.05 considered 0, read-out: OR10a Average response (VUAA1-normalized)
[11] = HEK293, 10 μM VOC, 50 μM VUAA1 = 1, responses not exceeding 0.05 considered 0, read-out: OR10a Average response (VUAA1-normalized)
[12] = HEK293, 100 μM VOC, 50 μM VUAA1 = 1, responses not exceeding 0.05 considered 0, read-out: OR10a Average response (VUAA1-normalized)
[13] = HEK293, read-out: OR10a response (VUAA1-normalized response), VOC concentration 1 μM
[14] = HEK293, read-out: OR10a response (VUAA1-normalized response), VOC concentration 10 μM
[15] = HEK293, read-out: OR10a response (VUAA1-normalized response), VOC concentration 100 μM
[16] = HEK293, read-out: OR10a Average response (VUAA1-normalized), 1 μM VOC, 50 μM VUAA1 = 1, responses not exceeding 0.05 considered 0
[17] = HEK293, read-out: OR10a Average response (VUAA1-normalized), 10 μM VOC, 50 μM VUAA1 = 1, responses not exceeding 0.05 considered 0
[18] = HEK293, read-out: OR10a Average response (VUAA1-normalized), 100 μM VOC, 50 μM VUAA1 = 1, responses not exceeding 0.05 considered 0

Structure (SMILES) | activation at 1 µM (Drosophila OR13a; [1]) [%] | activation at 10 µM (Drosophila OR13a; [2]) [%] | activation at 100 µM (Drosophila OR13a; [3]) [%] | activation at 1 µM (Drosophila OR13a; [4]) [%] | activation at 10 µM (Drosophila OR13a; [5]) [%] | activation at 100 µM (Drosophila OR13a; [6]) [%] | DF norm AVERAGE OR13a (Drosophila OR13a; [7]) | DF norm AVERAGE OR13a (Drosophila OR13a; [8]) | DF norm AVERAGE OR13a (Drosophila OR13a; [9]) | activation at 1 µM (Drosophila OR10a; [10]) [%] | activation at 10 µM (Drosophila OR10a; [11]) [%] | activation at 100 µM (Drosophila OR10a; [12]) [%] | activation at 1 µM (Drosophila OR10a; [13]) [%] | activation at 10 µM (Drosophila OR10a; [14]) [%] | activation at 100 µM (Drosophila OR10a; [15]) [%] | DF norm AVERAGE OR10a (Drosophila OR10a; [7]) | DF norm AVERAGE OR10a (Drosophila OR10a; [8]) | DF norm AVERAGE OR10a (Drosophila OR10a; [9]) | activation at 1 µM (Drosophila OR10a; [16]) [%] | activation at 10 µM (Drosophila OR10a; [17]) [%] | also measured
CC(=O)c1ccccc1 [acetophenone] | 0 | 0 | 0 | 0 | 0 | 0 | 0 | 0 | 0 | 4 | 0 | 24 | 0 | 0 | 24 | 0 | 0 | 0.2367 |  |  | 
CC1=CCC2CC1C2(C)C (stereo not drawn) [alpha-pinene] | 0 | 0 | 1.73 | 0 | 0 | 0 | 0 | 0 | 0 |  |  |  | 0 | 0 | 7.44 | 0 | 0 | 0.07438 | 5 | 0 | activation at 100 µM (Drosophila OR10a; [18]): 7.44%
CC1=CC[C@@H](C(C)(C)O)CC1 [alpha-terpineol] | 3.36 | 0 | 0 | 0 | 0 | 0 | 0 | 0 | 0 |  |  |  | 0 | 0 | 0 | 0 | 0 | 0 | 3.64 | 2.71 | activation at 100 µM (Drosophila OR10a; [18]): 0%
O=Cc1ccccc1 [benzaldehyde] | 0 | 8 | 5 | 0 | 8 | 0 | 0 | 0.07623 | 0 | 0 | 4 | 17 | 0 | 0 | 17 | 0 | 0 | 0.1697 |  |  | 
